Experimental data from paper PMC5955414, “PKD1 is a potential biomarker and therapeutic target in triple-negative breast cancer” (Oncotarget, 2018).
Blank lines part the entries; values can stand above or below the compound they belong to.

Legend:
PKD3 [1] = biological target: T1, PKD3 (Homo sapiens, UniProt O94806); parameters: method as in PMID 20497126, PMID 20442301, PMID 18829454, PMID 21617763, PMID 20444281; details: cited from earlier work
T1 sequence (O94806 1-890): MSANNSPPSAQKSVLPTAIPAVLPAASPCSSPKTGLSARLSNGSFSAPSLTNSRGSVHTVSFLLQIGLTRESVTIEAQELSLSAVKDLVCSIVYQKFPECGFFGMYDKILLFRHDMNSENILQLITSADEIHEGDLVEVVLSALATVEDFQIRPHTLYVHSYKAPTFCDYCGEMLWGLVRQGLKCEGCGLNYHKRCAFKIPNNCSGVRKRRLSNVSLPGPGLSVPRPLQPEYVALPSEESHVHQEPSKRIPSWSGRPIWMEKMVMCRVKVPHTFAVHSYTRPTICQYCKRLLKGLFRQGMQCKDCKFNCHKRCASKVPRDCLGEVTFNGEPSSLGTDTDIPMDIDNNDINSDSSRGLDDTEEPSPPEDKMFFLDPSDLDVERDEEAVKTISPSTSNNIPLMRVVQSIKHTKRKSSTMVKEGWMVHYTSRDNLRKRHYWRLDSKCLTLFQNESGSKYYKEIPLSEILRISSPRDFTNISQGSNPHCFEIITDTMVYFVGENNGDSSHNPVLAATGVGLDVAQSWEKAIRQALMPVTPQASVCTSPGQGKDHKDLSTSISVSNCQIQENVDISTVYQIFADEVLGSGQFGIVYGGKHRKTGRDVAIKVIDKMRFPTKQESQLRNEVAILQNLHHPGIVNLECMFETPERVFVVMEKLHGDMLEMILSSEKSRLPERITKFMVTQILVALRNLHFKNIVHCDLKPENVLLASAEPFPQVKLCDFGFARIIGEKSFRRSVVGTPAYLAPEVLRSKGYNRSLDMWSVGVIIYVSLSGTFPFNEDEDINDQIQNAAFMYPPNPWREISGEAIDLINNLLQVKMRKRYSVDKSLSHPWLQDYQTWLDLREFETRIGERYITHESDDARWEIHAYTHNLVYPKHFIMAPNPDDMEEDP

PKD3 [2] = biological target: T1, PKD3; test: In vitro kinase inhibitory activity, PKD3; assay type: biochemical; details: AB9275: at concentrations inhibiting PKD1; compared with PKD1
Protocol: (§1) Supplementary Figure 5: Specificity of the AB9275 PKD1 inhibitor. (A) Comparison of in vitro kinase inhibitory activities
(§2) between AB9275 and different PKD1 inhibitors.
(§3) CRT0066101. Other IC50s were obtained from the literature (as indicated). (B) Kinome selectivity profile of the AB9275 compound. The
(§4) CA). AB9275 was screened at 1 μM.

[3] = tested on: MCF7 chemoresistant xenografts; parameters: method as in PMID 26895471; details: cited from earlier work
PKCα [4] = biological target: T2, PKCα (Homo sapiens, UniProt P17252); test: In vitro kinase inhibitory activity, PKCα; assay type: biochemical; details: AB9275: at concentrations inhibiting PKD1
Protocol: as §1, §2, §3, §4

PKCβ [5] = biological target: T3, PKCβ (Homo sapiens, UniProt P05771); test: In vitro kinase inhibitory activity, PKCβ; assay type: biochemical; details: AB9275: at concentrations inhibiting PKD1
Protocol: as §1, §2, §3, §4

PKCα [6] = biological target: T2, PKCα; parameters: method as in PMID 20497126, PMID 20442301, PMID 18829454, PMID 21617763, PMID 20444281; details: cited from earlier work
PKCβ [7] = biological target: T3, PKCβ; parameters: method as in PMID 20497126, PMID 20442301, PMID 18829454, PMID 21617763, PMID 20444281; details: cited from earlier work

T3 sequence (P05771 whole entry, species assumed): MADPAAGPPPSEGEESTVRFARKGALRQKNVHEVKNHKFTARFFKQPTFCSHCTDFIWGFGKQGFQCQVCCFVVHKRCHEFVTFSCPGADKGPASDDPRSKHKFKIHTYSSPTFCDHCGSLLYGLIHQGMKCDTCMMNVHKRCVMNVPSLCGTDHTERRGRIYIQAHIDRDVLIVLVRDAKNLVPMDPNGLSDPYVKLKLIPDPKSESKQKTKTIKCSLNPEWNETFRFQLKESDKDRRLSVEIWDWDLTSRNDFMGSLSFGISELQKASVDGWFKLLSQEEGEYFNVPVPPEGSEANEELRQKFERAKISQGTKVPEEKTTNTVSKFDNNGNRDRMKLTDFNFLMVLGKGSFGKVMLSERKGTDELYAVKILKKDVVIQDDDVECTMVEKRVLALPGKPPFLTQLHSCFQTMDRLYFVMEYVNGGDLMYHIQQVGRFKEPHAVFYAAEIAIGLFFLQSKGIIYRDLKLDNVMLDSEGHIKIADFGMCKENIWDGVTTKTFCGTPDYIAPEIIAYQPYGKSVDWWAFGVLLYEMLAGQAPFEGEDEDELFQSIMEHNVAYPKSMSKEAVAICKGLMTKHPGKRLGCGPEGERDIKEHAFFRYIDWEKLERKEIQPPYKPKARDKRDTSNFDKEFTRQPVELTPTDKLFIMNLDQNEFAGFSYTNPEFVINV

Compound: O=C1NCCCc2c1oc1ccc(O)cc21 [CID755673]
- Inhibition of PKD3 relative to PKD1 (literature) (PKD3 [1]): similarly inhibit PKD1 and PKD3

Compound: CC[C@@H](N)CNc1ccnc(-c2cc(-c3cnn(C)c3)ccc2O)n1.Cl.Cl [CRT0066101]
- Inhibition of PKD3 in vitro (PKD3 [2]): more potent against PKD3
- Inhibition of PKD3 relative to PKD1 (literature) (PKD3 [1]): similarly inhibit PKD1 and PKD3
- Tumor growth of MCF7 chemoresistant xenografts in vivo [3]: able to inhibit tumor growth

- Inhibition of PKCα in vitro (PKCα [4]): strongly inhibited
- Inhibition of PKCβ in vitro (PKCβ [5]): strongly inhibited
Compound: Cn1c2ccccc2c2c3c(c4c5ccccc5n(CCC#N)c4c21)CNC3=O [Gö6976]
- Inhibition of PKCα (literature) (PKCα [6]): also inhibits
- Inhibition of PKCβ (literature) (PKCβ [7]): also inhibits

Compound: CRT5
- Inhibition of PKD3 relative to PKD1 (literature) (PKD3 [1]): similarly inhibit PKD1 and PKD3
